The results in this text go back to ChEMBL document CHEMBL4145602, “Cyclic Peptidic Mimetics of Apollo Peptides Targeting Telomeric Repeat Binding Factor 2 (TRF2) and Apollo Interaction” (ACS Med Chem Lett, 2018).

Each structure is given as a SMILES string. pKi: −log10 of the molar value. Square brackets hold non-standard residues; d marks the D form. Peptide text beside a SMILES is read from it. Phe(4-NH2) = Nc1ccc(C[C@H](N)C(=O)O)cc1; Gly(cPent) = N[C@H](C(=O)O)C1CCCC1; tBuAla = CC(C)(C)C[C@H](N)C(=O)O; Cha = N[C@@H](CC1CCCCC1)C(=O)O; Chg = N[C@H](C(=O)O)C1CCCCC1; Nva = CCC[C@H](N)C(=O)O

Usually pKi stands for the negative decadic logarithm of the Ki, by convention in mol/L. The low end stands for a large Ki, the high end for a small Ki.

The experiment addresses T1, Telomeric repeat-binding factor 2 (Homo sapiens, UniProt Q15554).
T1 sequence (Q15554 whole entry): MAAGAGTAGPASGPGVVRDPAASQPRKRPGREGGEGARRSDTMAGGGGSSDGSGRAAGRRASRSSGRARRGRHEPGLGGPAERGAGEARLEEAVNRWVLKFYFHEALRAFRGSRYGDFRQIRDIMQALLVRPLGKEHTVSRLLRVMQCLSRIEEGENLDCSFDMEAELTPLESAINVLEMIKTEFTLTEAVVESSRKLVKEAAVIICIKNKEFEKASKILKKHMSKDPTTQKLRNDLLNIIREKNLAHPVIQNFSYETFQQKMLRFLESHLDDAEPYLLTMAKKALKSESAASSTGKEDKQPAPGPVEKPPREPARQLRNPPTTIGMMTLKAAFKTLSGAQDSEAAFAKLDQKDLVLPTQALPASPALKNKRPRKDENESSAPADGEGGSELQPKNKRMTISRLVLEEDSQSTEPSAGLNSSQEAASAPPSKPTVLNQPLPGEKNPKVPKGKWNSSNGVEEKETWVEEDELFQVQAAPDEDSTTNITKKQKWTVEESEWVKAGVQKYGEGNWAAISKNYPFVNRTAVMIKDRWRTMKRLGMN
Kind of experiment: Displacement of 5-((2R,6S,9S,12S,15S,18S,21S,24S)-3-((S)-2-((S)-1-amino-3-methyl-1-oxobutan-2-ylcarbamoyl)pyrrolidine-1-carbonyl)-15-(4-aminobutyl)-2-hydroxy-12-(4-hydroxybenzyl)-6,9,18,24-tetraisobutyl-21-methyl-5,8,11,14,17,20,23,26,29-nonaoxo-4,7,10,13,16,19,22,25,28-nonaazatetratriacontan-34-ylcarbamoyl)-2-(6-hydroxy-3-oxo-3H-xanthen-9-yl)benzoic acid from TRF2 TRFH domain (unknown origin) after 30 mins by fluorescence polarization assay. On the technique in general: In fluorescence polarisation assays a small probe gives low polarisation when free and higher when bound to something large.
Compound `CC(=O)N[C@@H](CC(C)C)C(=O)N[C@@H](C)C(=O)N[C@@H](CC(C)C)C(=O)N[C@@H](CCCCN)C(=O)N[C@@H](Cc1ccc(O)cc1)C(=O)N[C@@H](CC(C)C)C(=O)N[C@@H](CC1CCCCC1)C(=O)N[C@H](C(=O)N1CCC[C@H]1C(=O)N[C@H](C(N)=O)C(C)C)[C@@H](C)O` (Ac-LALKYL[Cha]TPV-NH2) showed a pKi of 5.85. The figure for `CC(=O)N[C@@H](CC(C)C)C(=O)N[C@@H](C)C(=O)N[C@@H](CC(C)C)C(=O)N[C@@H](CCCCN)C(=O)N[C@@H](Cc1ccc(O)cc1)C(=O)N[C@@H](CC(C)C)C(=O)N[C@@H](Cc1ccccc1)C(=O)N[C@H](C(=O)N1CCC[C@H]1C(=O)N[C@H](C(N)=O)C(C)C)[C@@H](C)O` (Ac-LALKYLFTPV-NH2) is 5.07; for `CC(C)C[C@H](NC(=O)[C@@H](N)CC(C)C)C(=O)N[C@H](C(=O)N1CCC[C@H]1C(=O)N[C@H](C(N)=O)C(C)C)[C@@H](C)O` (H-LLTPV-NH2) it is under 3.30. Next, `CCC[C@H](NC(=O)[C@H](CC(C)C)NC(=O)[C@H](Cc1ccc(O)cc1)NC(=O)[C@H](CCCCN)NC(=O)[C@H](CC(C)C)NC(=O)[C@H](C)NC(=O)[C@H](CC(C)C)NC(C)=O)C(=O)N[C@H](C(=O)N1CCC[C@H]1C(=O)N[C@H](C(N)=O)C(C)C)[C@@H](C)O` (Ac-LALKYL[Nva]TPV-NH2): 5.33; `CC(=O)N[C@@H](CC(C)C)C(=O)N[C@@H](C)C(=O)N[C@@H](CC(C)C)C(=O)N[C@@H](C)C(=O)N[C@@H](Cc1ccc(O)cc1)C(=O)N[C@@H](CC(C)C)C(=O)N[C@@H](CC(C)C)C(=O)N[C@H](C(=O)N1CCC[C@H]1C(=O)N[C@H](C(N)=O)C(C)C)[C@@H](C)O` (Ac-LALAYLLTPV-NH2): 5.49; `CC(C)C[C@H](NC(=O)[C@H](C)NC(=O)[C@@H](N)CC(C)C)C(=O)N[C@@H](CCCCN)C(=O)N[C@@H](Cc1ccc(O)cc1)C(=O)N[C@@H](CC(C)C)C(=O)N[C@@H](CC(C)C)C(=O)N[C@H](C(=O)N1CCC[C@H]1C(=O)N[C@H](C(=O)O)C(C)C)[C@@H](C)O` (H-LALKYLLTPV-OH): 5.66. In the case of `CC(C)C[C@H](NC(=O)CN)C(=O)N[C@@H](C)C(=O)N[C@@H](CC(C)C)C(=O)N[C@@H](CCCCN)C(=O)N[C@@H](Cc1ccc(O)cc1)C(=O)N[C@@H](CC(C)C)C(=O)N[C@@H](CC(C)C)C(=O)N[C@H](C(=O)N1CCC[C@H]1C(=O)N[C@H](C(=O)O)C(C)C)[C@@H](C)O` (H-GLALKYLLTPV-OH), the pKi was 6.42. The figure for `CC(=O)N[C@@H](CC(C)C)C(=O)N[C@@H](C)C(=O)N[C@@H](CC(C)C)C(=O)N[C@@H](CCCCN)C(=O)N[C@@H](Cc1ccc(O)cc1)C(=O)N[C@@H](CC(C)C)C(=O)N[C@@H](CC(C)C)C(=O)N[C@H](C(=O)N1CCC[C@H]1C(=O)O)[C@@H](C)O` (Ac-LALKYLLTP-OH) is 5.72; for `CC[C@H](C)[C@H](NC(=O)[C@H](CC(C)C)NC(=O)[C@H](Cc1ccc(O)cc1)NC(=O)[C@H](CCCCN)NC(=O)[C@H](CC(C)C)NC(=O)[C@H](C)NC(=O)[C@H](CC(C)C)NC(C)=O)C(=O)N[C@H](C(=O)N1CCC[C@H]1C(=O)N[C@H](C(N)=O)C(C)C)[C@@H](C)O` (Ac-LALKYLITPV-NH2) it is 4.95; for `CC(C)C[C@H](NC(=O)[C@H](Cc1ccc(O)cc1)NC(=O)[C@@H](N)CCCCN)C(=O)N[C@@H](CC(C)C)C(=O)N[C@H](C(=O)N1CCC[C@H]1C(=O)N[C@H](C(=O)O)C(C)C)[C@@H](C)O` (H-KYLLTPV-OH) it is 3.91.

As for `CC(C)C[C@@H]1NC(=O)[C@@H](NC(=O)[C@H](Cc2ccccc2)NC(=O)CCc2ccccc2)CCCCCCC[C@@H](C(=O)N(C)C)NC(=O)[C@@H]2CCCN2C(=O)[C@H](C)NC1=O`, the pKi is 4.95. The figure for `CC(C)C[C@@H]1NC(=O)[C@@H](NC(=O)[C@@H](N)Cc2ccc(O)cc2)CCCCCCC[C@@H](C(=O)N(C)C)NC(=O)[C@@H]2CCCN2C(=O)[C@H](C)NC1=O` is 4.24; for `CC(=O)N[C@@H](CC(C)C)C(=O)N[C@@H](C)C(=O)N[C@@H](CC(C)C)C(=O)N[C@@H](CCCCN)C(=O)N[C@@H](Cc1ccc(O)cc1)C(=O)N[C@@H](CC(C)C)C(=O)N[C@@H](CC(C)C)C(=O)N[C@H](C(=O)O)[C@@H](C)O` (Ac-LALKYLLT-OH) it is 4.58; for `CC(C)C[C@@H]1NC(=O)[C@@H](NC(=O)[C@H](Cc2ccc(O)cc2)NC(=O)[C@@H](N)CCCCN)CCCCCCC[C@@H](C(=O)N(C)C)NC(=O)[C@@H]2CCCN2C(=O)[C@H](C)NC1=O` it is 4.74. The figure for `CC(=O)N[C@@H](CC(C)C)C(=O)N[C@@H](C)C(=O)N[C@@H](CC(C)C)C(=O)N[C@@H](CCCCN)C(=O)N[C@@H](Cc1ccc(O)cc1)C(=O)N[C@@H](CC(C)C)C(=O)N[C@H](C(=O)N[C@H](C(=O)N1CCC[C@H]1C(=O)N[C@H](C(N)=O)C(C)C)[C@@H](C)O)C1CCCCC1` (Ac-LALKYL[Chg]TPV-NH2) is 6.68.

For `CC(C)C[C@H](NC(=O)[C@H](C)N)C(=O)N[C@@H](CCCCN)C(=O)N[C@@H](Cc1ccc(O)cc1)C(=O)N[C@@H](CC(C)C)C(=O)N[C@@H](CC(C)C)C(=O)N[C@H](C(=O)N1CCC[C@H]1C(=O)N[C@H](C(=O)O)C(C)C)[C@@H](C)O` (H-ALKYLLTPV-OH), the pKi was 4.64. `CC(=O)N[C@@H](CC(C)C)C(=O)N[C@@H](C)C(=O)N[C@@H](CC(C)C)C(=O)N[C@@H](CCCCN)C(=O)N[C@@H](Cc1ccc(N)cc1)C(=O)N[C@@H](CC(C)C)C(=O)N[C@@H](CC(C)C)C(=O)N[C@H](C(=O)N1CCC[C@H]1C(=O)N[C@H](C(N)=O)C(C)C)[C@@H](C)O` (Ac-LALK[Phe(4-NH2)]LLTPV-NH2) gave a pKi of 6.14. Next, `CC(C)C[C@@H]1NC(=O)[C@@H](NC(=O)[C@@H](N)Cc2ccccc2)CCCCCC[C@@H](C(=O)N(C)C)NC(=O)[C@@H]2CCCN2C(=O)[C@H](C)NC1=O`: 3.89; `CC(C)C[C@H](NC(=O)[C@H](Cc1ccc(O)cc1)NC(=O)[C@H](CCCCN)NC(=O)[C@@H](N)CC(C)C)C(=O)N[C@@H](CC(C)C)C(=O)N[C@H](C(=O)N1CCC[C@H]1C(=O)N[C@H](C(=O)O)C(C)C)[C@@H](C)O` (H-LKYLLTPV-OH): 4.57; `CC(=O)N[C@@H](CC(C)C)C(=O)N[C@@H](C)C(=O)N[C@@H](CC(C)C)C(=O)N[C@@H](CCCCN)C(=O)N[C@@H](Cc1ccc(O)cc1)C(=O)N[C@@H](CC(C)C)C(=O)N[C@@H](CC(C)C)C(=O)O` (Ac-LALKYLL-OH): 4.01.

`CC(=O)N[C@@H](CC(C)C)C(=O)N[C@@H](C)C(=O)N[C@@H](CC(C)C)C(=O)N[C@@H](CCCCN)C(=O)N[C@@H](Cc1ccc(O)cc1)C(=O)N[C@H]1CCCCCCC[C@@H](C(=O)N(C)C)NC(=O)[C@@H]2CCCN2C(=O)[C@H](C)NC(=O)[C@H](CC(C)C)NC1=O` showed a pKi of 7.05. Next, `CC(=O)N[C@@H](CC(C)C)C(=O)N[C@@H](C)C(=O)N[C@@H](CC(C)C)C(=O)N[C@@H](CCCCN)C(=O)N[C@@H](Cc1ccc(O)cc1)C(=O)N[C@@H](CC(C)C)C(=O)N[C@@H](C)C(=O)N[C@H](C(=O)N1CCC[C@H]1C(=O)N[C@H](C(N)=O)C(C)C)[C@@H](C)O` (Ac-LALKYLATPV-NH2): under 4.00; `CC(=O)N[C@@H](CC(C)C)C(=O)N[C@@H](C)C(=O)N[C@@H](CC(C)C)C(=O)N[C@@H](CCCCN)C(=O)N[C@@H](Cc1ccc(O)cc1)C(=O)N[C@@H](CC(C)C)C(=O)N[C@@H](CC(C)(C)C)C(=O)N[C@H](C(=O)N1CCC[C@H]1C(=O)N[C@H](C(N)=O)C(C)C)[C@@H](C)O` (Ac-LALKYL[tBuAla]TPV-NH2): 5.21. The figure for `CC(C)C[C@@H]1NC(=O)[C@@H](N)CCCCCCC[C@@H](C(=O)N(C)C)NC(=O)[C@@H]2CCCN2C(=O)[C@H](C)NC1=O` is 3.94; for `CC(=O)N[C@@H](CC(C)C)C(=O)N[C@@H](C)C(=O)N[C@@H](CC(C)C)C(=O)N[C@@H](CCCCN)C(=O)N[C@@H](Cc1ccccc1)C(=O)N[C@@H](CC(C)C)C(=O)N[C@@H](CC(C)C)C(=O)N[C@H](C(=O)N1CCC[C@H]1C(=O)N[C@H](C(N)=O)C(C)C)[C@@H](C)O` (Ac-LALKFLLTPV-NH2) it is 5.47; for `CC(=O)N[C@@H](CC(C)C)C(=O)N[C@@H](C)C(=O)N[C@@H](CC(C)C)C(=O)N[C@@H](CCCCN)C(=O)N[C@@H](Cc1ccc(O)cc1)C(=O)N[C@@H](CC(C)C)C(=O)N[C@H](C(=O)N[C@H](C(=O)N1CCC[C@H]1C(=O)N[C@H](C(N)=O)C(C)C)[C@@H](C)O)C1CCCC1` (Ac-LALKYL[Gly(cPent)]TPV-NH2) it is 6.29. The figure for `CC(=O)N[C@@H](CC(C)C)C(=O)N[C@@H](C)C(=O)N[C@@H](CC(C)C)C(=O)N[C@@H](CCCCN)C(=O)N[C@@H](Cc1ccc(O)cc1)C(=O)N[C@@H](CC(C)C)C(=O)N[C@@H](CC(C)C)C(=O)N[C@H](C(=O)N1CCC[C@H]1C(=O)N[C@H](C(=O)O)C(C)C)[C@@H](C)O` (Ac-LALKYLLTPV-OH) is 6.47; for `CC(C)C[C@@H]1NC(=O)[C@@H](NC(=O)[C@H](Cc2ccccc2)NC(=O)C[C@@H](N)Cc2ccccc2)CCCCCCC[C@@H](C(=O)N(C)C)NC(=O)[C@@H]2CCCN2C(=O)[C@H](C)NC1=O` it is 4.84. On to `CC(=O)N[C@@H](CC(C)C)C(=O)N[C@@H](C)C(=O)N[C@@H](CC(C)C)C(=O)N[C@@H](CCCCN)C(=O)N[C@@H](Cc1ccc(O)cc1)C(=O)N[C@@H](CC(C)C)C(=O)O` (Ac-LALKYL-OH), for which the pKi is 3.34.
